Data reported in patent publication US11433136B2, “Polyacetal polymers, conjugates, particles and uses thereof” (THE GENERAL HOSPITAL CORPORATION, priority 2015, dated 2022).

What was measured:
[1] = test system: orthotopic PAN02 pancreatic tumors; assay: Orthotopic PAN02 pancreatic tumor study in lean and obese mice; format: in vivo, mouse; details: for gene and protein expression of activated PSC marker αSMA in tumors: losartan 90 mg/Kg i.p. every day
From the text: Wild-type (WT) C57BL/6 and FVB male mice were originally obtained from Jackson Laboratory (The Jackson Laboratory, Bar Harbor, Me.) and bred and maintained in our defined-flora colony. KPC (Ptf1-Cre/LSL-KRAS^G12D/p53-R172H) and iKRAS (p48-Cre;R26-rtTa-IRES-EGFP;TetO-Kras^G12D mice) mice were obtained. To generate an obese model, mice (6-week old) were given either 10% or a 60% fat diet (D12450J and D12492, Research Diets, New Brunswick, N.J.) for 10 weeks (or until tumor collection in spontaneous models), as previously described (Surwit, R. S., et al. Metabolism: clinical and experimental 44, 645-651 (1995)). For implanted tumor experiments, AK4.4 cells (KrasG12D and p53 ? /) were isolated from mice generating spontaneous pancreatic tumors (Ptf1-Cre/LSL-Kras^G12D/p53Lox/ ? ) (Bardeesy, N., et al. Proc Natl Acad Sci USA 103, 5947-5952 (2006)). Orthotopic pancreatic tumors were generated by implanting a small piece (1 mm^3) of viable tumor tissue (from a source tumor in a separate animal) into the pancreas of a 6-8 week-old male lean or obese FVB (AK4.4 model) or C57BL/6 (PAN02 model) mouse. PAN02 tumor chunks and AK4.4 cells were authenticated by IDEXX laboratories. (PAN02: IDEXX RADIL Case #22366-2013. AK4.4: IDEXX RADIL Case #27818-2014). For AT1- and AT2-knockout studies, tumors were implanted into the pancreas of a 6-8-week-old male lean or obese C57BL/6, agtr1a−/− or agtr2−/− mice. With exception of PAN02, these orthotopically grown pancreatic cancers are characterized by a dense collagenous stroma, a hallmark of pancreatic cancer desmoplasia (Diop-Frimpong, B., et al. Proc Natl Acad Sci USA 108, 2909-2914 (2011)).
For all experiments unless specified below, mice bearing orthotopic PAN02 or AK4.4 pancreatic tumors were randomized into treatment groups (or no treatment) and tumors were collected at day 21 after implantation. For tumor growth study with chemotherapy, mice were divided into treatment groups 7 days after implantation, and treated with either 5-FU (30 mg/Kg i.v. every 4 days) or an equal volume of saline by intravenous injection on days 7, 11 and 15 after implantation, with tumors collected at day 19. For tumor growth study with losartan, mice were treated with losartan (90 mg/Kg i.p. every day) or an equal volume of PBS intraperitoneally starting on day 5 after implantation and for the duration of the study. In the combined experiment of losartan and 5-FU, the same protocol was used for each drug as described above. TAN depletion by a Ly6G specific inhibitor (BioExcell, 4 mg/Kg i.p. every 2 days) was administered to PAN02 bearing animals starting at day 1 or day 7, and to AK4.4 bearing animals at day 7. IL-1β inhibition (MM425B, Endogen/Pierce Biotechnology, 2 mg/Kg i.p. every 2 days) was administered to PAN02 bearing animals starting at day 7. At the completion of the study, adipose tissue and tumor samples were collected, weighed, and processed for further analysis. When spontaneous models were used, tumors were collected when palpable.
To assess obesity-induced ECM remodeling and fibrosis fibrillar collagen accumulation was quantified using second harmonic generation imaging, and collagen-I content, hyaluronan, MMPs levels and fibrosis related signaling pathways (e.g. AT-I, CTGF, TSP 1, TGFβ1, and P38/ERK signaling) were measured by rtPCR array, immunohistochemistry and immunoblotting. The topographical distribution and density of cancer-associated fibroblasts (CAFs) in tumor sections was detected by staining for αSMA activated fibroblast marker. Vessel morphology and perfusion was assessed using standard histological analyses.
Mice bearing orthotopic PAN02 were injected with 30 mg/kg of 5-FU 3 weeks after tumor implantation, administered retro-orbitally 30 min prior to tumor removal. The tissue was dabbed of excess blood and then snap-frozen in liquid nitrogen for analysis. […]

[2] = test system: Marfan syndrome; details: children; cited from earlier work
[3] = test system: PDACs; assay: Effect of losartan on immune cell populations in tumors (model not stated); parameters: species or system mice; details: mouse, in vivo
Description: FIGS. 21A, 21B, and 21C show the effect of losartan on the immune tumor microenvironment. […] Error bars represent standard error of the mean. P values were determined by the Student t-test in A. *, P<0.05, **, P<0.01, ***, P<0.001.

[4] = test system: PDAC; details: in vivo; cited from earlier work
[5] = test system: mouse models of Marfan syndrome; details: affected mice; cited from earlier work
[6] = test system: cardiac and renal fibrosis; details: in vivo; cited from earlier work

SMILES	reduction in tumor weight as compared to untreated controls ([1]; lean mice, 3 doses of 5-FU 30 mg/kg BW q4d)	effect on tumor weight ([1]; obese mice, 3 doses of 5-FU 30 mg/kg BW q4d)	delivery of 5-FU to tumors ([1]; tumors in obese mice versus lean, 30 mg/kg, 30 min prior to tumor removal)	progression of aortic and muscular lesions [2]	enrichment for GR(+)F480(−) cells within the CD45 population [3]	enrichment for T regulatory cells within CD4 cells [3]	desmoplasia in PDAC [4]	vascular perfusion, drug delivery and chemotherapy effectiveness [4]	blood vessel architecture and aortic aneurysms [5]	incidence of cardiac and renal fibrosis [6]	gene and protein expression of activated PSC marker αSMA in tumors ([1]; lean mice)	response to chemotherapy with AT1 blockade ([1]; obese but not lean animals, losartan plus 5-FU)	tumor weight, losartan monotherapy ([1]; obese mice)	gene and protein expression of activated PSC marker αSMA in tumors ([1]; obese mice)	obesity-induced abnormal expression of desmoplasia-related markers and AT1 downstream signaling ([1]; obese mice, effects only modest in lean animals)	gene and protein expression of collagen-I and fibrillar collagen in tumors ([1]; obese, but not lean mice, losartan)
O=c1[nH]cc(F)c(=O)[nH]1 [Example 5-FU, 5-fluorouracil]	50%	did not significantly reduce tumor weight	decreased													
CCCCc1nc(Cl)c(CO)n1Cc1ccc(-c2ccccc2-c2nn[nH]n2)cc1 [losartan]				can strikingly prevent progression of aortic and muscular lesions	tended to decrease the enrichment for GR(+)F480(−) cells	tended to decrease the enrichment	can reduce desmoplasia in PDAC	can enhance vascular perfusion by decompressing vessels, leading to improved drug delivery and chemotherapy effectiveness	striking effects in improving blood vessel architecture and prevented the development of aortic aneurysms	reduce the incidence of cardiac and renal fibrosis	only mildly	enhanced	reduced tumor weight	reduce	normalized	decrease
